# Columns and labels:
# [1] = tested on: Febr1T-K+ (T. brucei G-quadruplex); experiment: FRET melting assay, T. brucei G4; format: binding; conditions: 200 nM DNA, PIPER and 3 not reliable (spectral overlap)
# Method: (§1) With the library in hand, we began our investigation into G4 stabilization by conducting a Förster resonance energy transfer (FRET) melting assay to assess DNA stabilization using the procedure outlined by De Cian et. al. ^[13] […] The sequences examined (at 200 nM) were the human telomeric G4 in potassium buffer (F21T‐K^+, mixed parallel/hybrid G4) ^[14] and sodium buffer (F21T‐Na^+, antiparallel G4), ^[15] the c‐Myc promoter G‐quadruplex (FmycT‐K^+, parallel G4), ^[16] a polymorphic G4 found in T. brucei (FEBR1T‐K^+, a mixed G4 topology), ^[6b] and a hairpin duplex DNA sequence (F10T‐K^+). Together, these sequences represent targets for therapeutic intervention to treat parasitic infections, ^[6b] or cancer. ^[1b] The topology of each sequence was confirmed independently via circular dichroism (CD, Figure S1). […]
# (§2) FRET melting assays were performed to assess ligand affinity for duplex and G-quadruplex
# (§3) DNA. Briefly, oligonucleotides of interest were obtained labelled at the 5’ and 3’ ends with FAM (a fluorescence donor) and TAMRA (a fluorescence quencher), respectively. In the folded state, proximity of the donor and quencher result in no observed fluorescence from FAM, since energy is transferred non-radiatively to TAMRA by FRET. As the temperature is raised and the secondary structure denatures, the fluorophores move further apart and the fluorescence signal increases. From the resulting curve, the characteristic melting temperature (Tmax, also referred to as Tm) is defined as the temperature which corresponds to the maxima of the first derivative of the normalised fluorescence signal. The change in melting temperature (ΔTm) induced by the presence of a small molecule ligand provides an indication of the ligand’s ability to stabilise the DNA structure. FRET experiments were performed according to the […]
# (§4) procedure reported by De Cian and co-workers[S3] on a Stratagene MX3005P. The method consisted of holding at 25 °C for 5 min, before heating at 1 °C/min to 96 °C in 1 °C increments, […]
# [2] = tested on: F10T-K+ (hairpin duplex DNA); experiment: FRET melting assay, hairpin duplex DNA; format: binding; conditions: 200 nM DNA, PIPER and 3 not reliable (spectral overlap)
# Method: as §1, §2, §3, §4
# [3] = tested on: FmycT-K+ (c-Myc promoter G-quadruplex, parallel); experiment: FRET melting assay, c-Myc promoter G4; format: binding; conditions: 200 nM DNA, PIPER and 3 not reliable (spectral overlap)
# Method: as §1, §2, §3, §4
# [4] = tested on: F21T-Na+ (human telomeric G-quadruplex, antiparallel); experiment: FRET melting assay, human telomeric G4 in sodium buffer; format: binding; conditions: 200 nM DNA, PIPER and 3 not reliable (spectral overlap)
# Method: as §1, §2, §3, §4
# [5] = tested on: F21T-K+ (human telomeric G-quadruplex, mixed parallel/hybrid); experiment: FRET melting assay, human telomeric G4 in potassium buffer; format: binding; conditions: 200 nM DNA, PIPER and 3 not reliable (spectral overlap)
# Method: as §1, §2, §3, §4
# [6] = tested on: HeLa cervical carcinoma cells; experiment: Cytotoxicity, alamarBlue assay, HeLa; format: cell-based, human; conditions: Homo sapiens, HeLa; 72 h incubation, alamarBlue fluorescence; read-out: absolute EC50 HeLa
# Method: (§5) Doxorubicin, suramin and miltefosine were used as control compounds.[ ^6b , ^9 ] After incubation with varied concentrations of the compounds for 72 h, cell viability was measured using either an alamarBlue™ assay (for MRC5, HeLa and T. brucei) or MTT assay (for L. major). Absolute EC50 values and selectivity indexes were then calculated from dose‐response curves (Table 2 and S14). […]
# (§6) Cell culture reagents were purchased from Thermo Fisher Scientific (Waltham, MA, USA) and used as-is. The Dulbecco’s Minimal Essential Medium (DMEM) formulation contained either high glucose (4.5 g/L, catalogue number: 10569) or low glucose (1 g/L, catalogue number:
# (§7) 10567). RPMI-1640 was provided without sodium pyruvate and with L-glutamine (catalogue number: 11875). Phosphate Buffered Saline (PBS) contained NaCl (9 g/L), KH2PO4 (144 mg/L) and Na2HPO4-7.H2O (795 mg/L, catalogue number: 10010049). TrypLE Express™ was provided with EDTA (458 mg/L) and without Phenol Red (catalogue number: 12604021).
# MRC-5 cells (human lung fibroblasts) were grown in monolayer (37 °C, 5 % CO2 and 100 % humidity) in DMEM medium (1 g/L glucose), supplemented with 10% heat-inactivated Fetal Bovine Serum (hiFBS), 2 mM L-glutamine, 100 U / mL penicillin and […] streptomycin. HeLa (Human cervical carcinoma cell line) cells were maintained at 37 °C and 5 % CO2 in high glucose DMEM (4.5 g / L) supplemented with 10% hiFBS, 100 U / ml penicillin, […] streptomycin, 2 mM L-glutamine and non-essential aminoacids (1X).
# (§8) Cells were cultured according to ATCC recommendations and were used for the experiments while in the exponential growth phase. […]
# (§9) Cytotoxicity was measured through the alamarBlue® assay (Thermo Fisher Scientific).[S6,S13] Briefly, 5×10^3 MRC-5 or HeLa cells were seeded in 96-wells plates (100 µL / well) in the presence of increasing concentrations of compound. After 72 hrs of incubation at 37 °C, 20 µL of alamarBlue® solution (110 ng / ml) was added to each well and cells were reincubated for 4 hrs at 37 °C. Then, 50 µL of 3 % SDS were added to each well. The plate was incubated at 37 °C for an extra hour and then analysed by fluorescence with an Infinite F200 plate reader (TECAN Austria, GmbH). The excitation wavelength was fixed at 550 nm and the emission wavelength at 590 nm. The results are expressed as the concentration of compound that reduces
# [7] = tested on: L. major; experiment: Leishmaniacidal activity, MTT assay; format: cell-based; conditions: Leishmania major; 72 h incubation, MTT absorbance; read-out: absolute EC50 L. major
# Method: Doxorubicin, suramin and miltefosine were used as control compounds.[ ^6b , ^9 ] After incubation with varied concentrations of the compounds for 72 h, cell viability was measured using either an alamarBlue™ assay (for MRC5, HeLa and T. brucei) or MTT assay (for L. major). Absolute EC50 values and selectivity indexes were then calculated from dose‐response curves (Table 2 and S14).
# Invitrogen). L. major promastigotes (MHOM/IL/80/Friedlin) were cultured at 28 °C, 5 % CO2 in modified RPMI-1640 medium (Thermo Fisher Scientific, Waltham, MA, USA) with 10% hiFBS. Parasites were split every other day and maintained in their experimental growth phase (below 2 million parasites per mL). […]
# The results are expressed as the concentration of compound that reduces cell growth by 50 % versus untreated control cells (EC50) using GraphPad Prism 7 (GraphPad Software) to fit the data to a sigmoidal curve. Data are presented as the average of three independent measurements all conducted in triplicate conditions. […]
# The leishmaniacidal activity of the compounds on promastigotes L. major (MHOM/IL/80/Friedlin) was carried out as previously described.[S14] Briefly, 4 × 10^6 / mL promastigotes were incubated for 72 h at 28 °C in 96-well plates (50 µL/well) in the presence of increasing concentration of compounds. Cell proliferation was determined using an MTT-based assay (Sigma-Aldrich). Thus, after the 72 h incubation, 10 µL of MTT (5 mg/ml) were added to each well and parasites were reincubated for 4 hrs at 28 °C. Then, 50 µL of 20 % SDS were added to each well. The plate was then incubated at 37°C for 4-16 hrs and analysed using an Infinite F200 plate reader (TECAN Austria, GmbH). The absorbance was measured […]
# at a wavelength of 540 nm and the EC50 was calculated as described above. Data are presented as the average of three independent measurements, all conducted in triplicate conditions. […]
# [8] = tested on: T. brucei; experiment: Trypanocidal activity, alamarBlue assay; format: cell-based; conditions: Trypanosoma brucei; 72 h incubation, alamarBlue fluorescence; read-out: absolute EC50 T. brucei
# Method: as §5, §6, §7
# MRC-5 cells (human lung fibroblasts) were grown in monolayer (37 °C, 5 % CO2 and 100 % humidity) in DMEM medium (1 g/L glucose), supplemented with 10% heat-inactivated Fetal Bovine Serum (hiFBS), 2 mM L-glutamine, 100 U / mL penicillin and […]
# streptomycin. […]
# as §8
# hiFBS. Parasites were split every other day and maintained in their experimental growth phase (below 2 million parasites per mL).
# as §9
# [9] = 5 μM ligand, 10 mM KCl, 90 mM LiCl, 10 mM Li cacodylate
Compound,ΔTm Febr1T-K+ ([1]; 1 µM ligand) [°C],ΔTm F10T-K+ ([2]; 1 µM ligand) [°C],ΔTm FmycT-K+ ([3]; 1 µM ligand) [°C],ΔTm F21T-Na+ ([4]; 1 µM ligand) [°C],ΔTm F21T-K+ ([5]; 1 µM ligand) [°C],further results
"COc1cccc2c1C(=O)c1c(O)c3c(c(O)c1C2=O)C[C@@](O)(C(=O)CO)C[C@@H]3O[C@H]1C[C@H](N)[C@H](O)[C@H](C)O1 [Doxorubicin, reference compound]",5 ± 1,2 ± 1,8 ± 1,0 ± 1,10 ± 1,EC50 [6]: 400 ± 50 nM
"CCCCCCCCCCCCCCCCOP(=O)([O-])OCC[N+](C)(C)C [Miltefosine, reference compound]",–,–,–,–,–,EC50 [7]: 5800 ± 10 nM
"O=C1c2ccc3c4ccc5c6c(ccc(c7ccc(c2c37)C(=O)N1CCN1CCCCC1)c64)C(=O)N(CCN1CCCCC1)C5=O [PIPER, reference compound]",21 ± 4,0 ± 1,23 ± 1,–,33 ± 1,"ΔTm Febr1T-K+ [1, 9]: 33±1 °C; ΔTm Febr1T-K+ ([1]; 10 µM ligand): 38 ± 7 °C; ΔTm F10T-K+ [2, 9]: 1±1 °C; ΔTm FmycT-K+ ([3]; 5 μM ligand, 1 mM KCl, 99 mM LiCl, 10 mM Li cacodylate): 21±2 °C; ΔTm FmycT-K+ ([3]; 10 µM ligand): 26 ± 1 °C; ΔTm F21T-Na+ ([4]; 5 μM ligand, 100 mM NaCl, 10 mM Li cacodylate): 17±2 °C; ΔTm F21T-Na+ ([4]; 10 µM ligand): 22 ± 1 °C; ΔTm F21T-K+ [5, 9]: 37±2 °C; ΔTm F21T-K+ ([5]; 10 µM ligand): > 40 °C"
"Cc1ccc(C(=O)Nc2ccc(S(=O)(=O)O)c3cc(S(=O)(=O)O)cc(S(=O)(=O)O)c23)cc1NC(=O)c1cccc(NC(=O)Nc2cccc(C(=O)Nc3cc(C(=O)Nc4ccc(S(=O)(=O)O)c5cc(S(=O)(=O)O)cc(S(=O)(=O)O)c45)ccc3C)c2)c1 [Suramin, reference compound]",–,–,–,–,–,EC50 [8]: 44 ± 6 nM
"C[n+]1ccc(-c2c3nc(c(-c4cc[n+](C)cc4)c4ccc([nH]4)c(-c4cc[n+](C)cc4)c4ccc([nH]4)c(-c4cc[n+](C)cc4)c4nc2C=C4)C=C3)cc1 [TMPyP4, reference compound]",32 ± 2,9 ± 1,34 ± 1,31 ± 2,33 ± 1,–

# Reference: article PMC8251916 (Chemistry (Weinheim an Der Bergstrasse, Germany), 2021)
